{"source": "ChEMBL document CHEMBL3826944", "about": "“Syringaresinol induces mitochondrial biogenesis through activation of PPARβ pathway in skeletal muscle cells” (Bioorg Med Chem Lett, 2016)", "key": {"C2C12 [1]": {"system": "C2C12", "test": "Induction of SIRT1 protein expression in mouse C2C12 myotubes at 1 uM after 24 hrs by immunoblot method", "type": "functional, cell-based"}, "C2C12 [2]": {"system": "C2C12", "test": "Upregulation of CPT1 protein expression in PPARbeta siRNA transfected mouse C2C12 myotubes at 1 uM after 24 hrs by immunoblot method relative to control", "type": "functional, cell-based"}, "C2C12 [3]": {"system": "C2C12", "test": "Upregulation of PPARbeta protein expression in PPARbeta siRNA transfected mouse C2C12 myotubes at 1 uM after 24 hrs by immunoblot method", "type": "functional, cell-based"}, "C2C12 [4]": {"system": "C2C12", "test": "Upregulation of PGC1-alpha protein expression in PPARbeta siRNA transfected mouse C2C12 myotubes at 1 uM after 24 hrs by immunoblot method relative to control", "type": "functional, cell-based"}, "Mus musculus [5]": {"species": "Mus musculus", "test": "Activation of AMPK in mouse C2C12 myotubes assessed as increase in expression of phosphorylated AMPK at Thr-172 residue at 1 uM after 24 hrs by immunoblot method"}, "C2C12 [6]": {"system": "C2C12", "test": "Upregulation of UCP2 protein expression in PPARbeta siRNA transfected mouse C2C12 myotubes at 1 uM after 24 hrs by immunoblot method relative to control", "type": "functional, cell-based"}, "C2C12 [7]": {"system": "C2C12", "test": "Induction of PPARbeta protein expression in mouse C2C12 myotubes at 50 uM after 24 hrs by immunoblot method", "type": "functional, cell-based"}, "C2C12 [8]": {"system": "C2C12", "test": "Induction of mitochondrial DNA content in PPARbeta siRNA transfected mouse C2C12 myotubes at 50 uM after 24 hrs by qRT-PCR method", "type": "functional, cell-based"}, "C2C12 [9]": {"system": "C2C12", "test": "Induction of mitochondrial biogenesis in mouse C2C12 myotubes assessed as increase in mitochondrial density at 25 uM after 24 hrs by Mitotracker Green staining based fluorescence microscopic analysis relative to control", "type": "functional"}, "[10]": {"target": "T1, Peroxisome proliferator-activated receptor delta (Mus musculus) (UniProt P35396)", "T1 sequence (whole entry)": "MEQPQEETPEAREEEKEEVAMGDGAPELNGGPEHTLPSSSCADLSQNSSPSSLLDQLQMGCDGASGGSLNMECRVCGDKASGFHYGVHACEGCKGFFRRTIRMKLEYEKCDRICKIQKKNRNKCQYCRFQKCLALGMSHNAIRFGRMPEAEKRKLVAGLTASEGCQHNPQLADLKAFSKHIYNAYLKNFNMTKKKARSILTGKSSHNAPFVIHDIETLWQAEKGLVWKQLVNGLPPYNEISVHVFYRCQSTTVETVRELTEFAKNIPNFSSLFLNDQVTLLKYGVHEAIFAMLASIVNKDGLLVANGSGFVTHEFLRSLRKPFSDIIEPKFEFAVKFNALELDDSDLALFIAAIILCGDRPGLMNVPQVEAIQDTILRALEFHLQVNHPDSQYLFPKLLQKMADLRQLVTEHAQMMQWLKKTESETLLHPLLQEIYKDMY", "test": "Activation of PPARbeta in mouse C2C12 myotubes assessed as increase in PGC-1alpha protein expression at 10 to 25 uM after 24 hrs by immunoblot method"}, "[11]": {"target": "T2, Peroxisome proliferator-activated receptor delta (Homo sapiens, UniProt Q03181)", "T2 sequence (Q03181 whole entry)": "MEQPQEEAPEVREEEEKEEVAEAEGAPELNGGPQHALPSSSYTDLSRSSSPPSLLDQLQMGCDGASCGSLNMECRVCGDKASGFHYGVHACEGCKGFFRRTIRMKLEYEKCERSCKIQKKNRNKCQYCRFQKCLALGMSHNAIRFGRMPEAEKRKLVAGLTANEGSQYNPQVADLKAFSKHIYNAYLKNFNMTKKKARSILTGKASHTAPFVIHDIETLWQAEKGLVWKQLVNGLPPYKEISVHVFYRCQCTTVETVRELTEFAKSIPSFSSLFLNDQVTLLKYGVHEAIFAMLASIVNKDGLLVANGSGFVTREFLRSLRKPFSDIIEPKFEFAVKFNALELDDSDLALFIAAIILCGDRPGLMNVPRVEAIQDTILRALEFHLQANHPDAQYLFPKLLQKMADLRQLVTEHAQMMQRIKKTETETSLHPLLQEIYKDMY", "test": "(§1) Activation of PPARbeta-LBD (unknown origin) assessed as fluorescein-labeled coactivator C33 recruitment by TR-FRET assay"}, "[12]": {"target": "T3, Peroxisome proliferator-activated receptor delta (Homo sapiens) (UniProt Q03181)", "T3 sequence (whole entry)": "T2 sequence (Q03181 whole entry)", "test": "as §1"}, "C2C12 [13]": {"system": "C2C12", "test": "Induction of PPARbeta mRNA expression in mouse C2C12 myotubes at <50 uM after 24 hrs by qRT-PCR method", "type": "functional, cell-based"}, "C2C12 [14]": {"system": "C2C12", "test": "Induction of mitochondrial density in PPARbeta siRNA transfected mouse C2C12 myotubes at 50 uM after 24 hrs by Mitotracker Green staining based fluorescence microscopic analysis", "type": "functional, cell-based"}, "C2C12 [15]": {"system": "C2C12", "test": "Upregulation of PPARbeta protein expression in PPARbeta siRNA transfected mouse C2C12 myotubes at 50 uM after 24 hrs by immunoblot method", "type": "functional, cell-based"}, "C2C12 [16]": {"system": "C2C12", "test": "Upregulation of CPT1 protein expression in PPARbeta siRNA transfected mouse C2C12 myotubes at 50 uM after 24 hrs by immunoblot method relative to control", "type": "functional, cell-based"}, "C2C12 [17]": {"system": "C2C12", "test": "Upregulation of PGC1-alpha protein expression in PPARbeta siRNA transfected mouse C2C12 myotubes at 50 uM after 24 hrs by immunoblot method relative to control", "type": "functional, cell-based"}, "C2C12 [18]": {"system": "C2C12", "test": "Upregulation of UCP2 protein expression in PPARbeta siRNA transfected mouse C2C12 myotubes at 50 uM after 24 hrs by immunoblot method relative to control", "type": "functional, cell-based"}, "C2C12 [19]": {"system": "C2C12", "test": "Induction of mitochondrial biogenesis in mouse C2C12 myotubes assessed as increase in mitochondrial density at 50 uM after 24 hrs by Mitotracker Green staining based fluorescence microscopic analysis relative to control", "type": "functional"}, "C2C12 [20]": {"system": "C2C12", "test": "Induction of SIRT1 protein expression in mouse C2C12 myotubes at 50 uM after 24 hrs by immunoblot method", "type": "functional, cell-based"}, "Mus musculus [21]": {"species": "Mus musculus", "test": "Activation of AMPK in mouse C2C12 myotubes assessed as increase in expression of phosphorylated AMPK at Thr-172 residue at 50 uM after 24 hrs by immunoblot method"}, "C2C12 [22]": {"system": "C2C12", "test": "Induction of PPARbeta mRNA expression in mouse C2C12 myotubes at 50 uM after 24 hrs by qRT-PCR method relative to control", "type": "functional"}, "C2C12 [23]": {"system": "C2C12", "test": "Induction of mitochondrial biogenesis in mouse C2C12 myotubes assessed as increase in mitochondrial DNA content at 25 to 50 uM after 24 hrs by qRT-PCR method", "type": "functional, cell-based"}, "[24]": {"target": "T2, Peroxisome proliferator-activated receptor delta", "test": "Binding affinity to recombinant PPARbeta-LBD (254 to 441 residues) (unknown origin) expressed in Escherichia coli Rosetta2 cells by isothermal titration calorimetry"}, "C2C12 [25]": {"system": "C2C12", "test": "Induction of PPARbeta protein expression in mouse C2C12 myotubes at <50 uM after 24 hrs by immunoblot method", "type": "functional, cell-based"}, "C2C12 [26]": {"system": "C2C12", "test": "Induction of mitochondrial density in scramble siRNA transfected mouse C2C12 myotubes at 50 uM after 24 hrs by Mitotracker Green staining based fluorescence microscopic analysis", "type": "functional, cell-based"}, "[27]": {"target": "T1, Peroxisome proliferator-activated receptor delta (Mus musculus)", "test": "Activation of PPARbeta in mouse C2C12 myotubes assessed as increase in PGC-1alpha mRNA level at 10 to 25 uM after 24 hrs by qRT-PCR method"}, "C2C12 [28]": {"system": "C2C12", "test": "Induction of mitochondrial DNA content in scramble siRNA transfected mouse C2C12 myotubes at 50 uM after 24 hrs by qRT-PCR method", "type": "functional, cell-based"}}, "note": "Active and inactive are the calls of the source. The calls are words filed in the database; no cut-off is given here.", "data": [{"smiles": "Cc1cc(SCc2sc(-c3ccc(C(F)(F)F)c(F)c3)nc2C)ccc1OCC(=O)O", "values": [{"measurement": "Activity", "setting": "C2C12 [1]", "result": "Active"}, {"measurement": "Activity", "setting": "C2C12 [2]", "result": "inactive"}, {"measurement": "Activity", "setting": "C2C12 [3]", "result": "inactive"}, {"measurement": "Activity", "setting": "C2C12 [4]", "result": "inactive"}, {"measurement": "Activity", "setting": "Mus musculus [5]", "result": "Active"}, {"measurement": "Activity", "setting": "C2C12 [6]", "result": "inactive"}]}, {"smiles": "COc1cc([C@H]2OC[C@H]3[C@@H]2CO[C@@H]3c2cc(OC)c(O)c(OC)c2)cc(OC)c1O", "note": "[SYRINGARESINOL]", "values": [{"measurement": "Activity", "setting": "C2C12 [7]", "result": "Active"}, {"measurement": "Activity", "setting": "C2C12 [8]", "result": "inactive"}, {"measurement": "Activity", "setting": "C2C12 [9]", "result": 14, "unit": "%"}, {"measurement": "Activity", "setting": "[10]", "result": "Active"}, {"measurement": "EC50", "setting": "[11]", "result": 18.1, "unit": "µM"}, {"measurement": "Activity", "setting": "[12]", "result": "Dose-dependent effect"}, {"measurement": "Activity", "setting": "C2C12 [13]", "result": "inactive"}, {"measurement": "Activity", "setting": "C2C12 [14]", "result": "inactive"}, {"measurement": "Activity", "setting": "C2C12 [15]", "result": "inactive"}, {"measurement": "Activity", "setting": "C2C12 [16]", "result": "inactive"}, {"measurement": "Activity", "setting": "C2C12 [17]", "result": "inactive"}, {"measurement": "Activity", "setting": "C2C12 [18]", "result": "inactive"}, {"measurement": "Activity", "setting": "C2C12 [19]", "result": 18, "unit": "%"}, {"measurement": "Activity", "setting": "C2C12 [20]", "result": "inactive"}, {"measurement": "Activity", "setting": "Mus musculus [21]", "result": "inactive"}, {"measurement": "fold change (FC)", "setting": "C2C12 [22]", "result": ">2"}, {"measurement": "Activity", "setting": "C2C12 [23]", "result": "Dose-dependent effect"}, {"measurement": "Kd", "setting": "[24]", "result": 27.6, "unit": "µM"}, {"measurement": "Activity", "setting": "C2C12 [25]", "result": "inactive"}, {"measurement": "Activity", "setting": "C2C12 [26]", "result": "Active"}, {"measurement": "Activity", "setting": "[27]", "result": "Active"}, {"measurement": "Activity", "setting": "C2C12 [28]", "result": "Active"}]}]}
